The numbers were not newly measured in patent publication US20210128727A1, “A pharmaceutical combination for use in the treatment of cancer” (Universitätsmedizin der Johannes Gutenberg-Universität Mainz, priority 2018, published 2021), which cites them from elsewhere.

The series addresses T1, TLR-9 (Mus musculus, UniProt Q9EQU3).
T1 construct: host or cells: mice (in vivo, endogenous protein)
T1 sequence (Q9EQU3 26-1032): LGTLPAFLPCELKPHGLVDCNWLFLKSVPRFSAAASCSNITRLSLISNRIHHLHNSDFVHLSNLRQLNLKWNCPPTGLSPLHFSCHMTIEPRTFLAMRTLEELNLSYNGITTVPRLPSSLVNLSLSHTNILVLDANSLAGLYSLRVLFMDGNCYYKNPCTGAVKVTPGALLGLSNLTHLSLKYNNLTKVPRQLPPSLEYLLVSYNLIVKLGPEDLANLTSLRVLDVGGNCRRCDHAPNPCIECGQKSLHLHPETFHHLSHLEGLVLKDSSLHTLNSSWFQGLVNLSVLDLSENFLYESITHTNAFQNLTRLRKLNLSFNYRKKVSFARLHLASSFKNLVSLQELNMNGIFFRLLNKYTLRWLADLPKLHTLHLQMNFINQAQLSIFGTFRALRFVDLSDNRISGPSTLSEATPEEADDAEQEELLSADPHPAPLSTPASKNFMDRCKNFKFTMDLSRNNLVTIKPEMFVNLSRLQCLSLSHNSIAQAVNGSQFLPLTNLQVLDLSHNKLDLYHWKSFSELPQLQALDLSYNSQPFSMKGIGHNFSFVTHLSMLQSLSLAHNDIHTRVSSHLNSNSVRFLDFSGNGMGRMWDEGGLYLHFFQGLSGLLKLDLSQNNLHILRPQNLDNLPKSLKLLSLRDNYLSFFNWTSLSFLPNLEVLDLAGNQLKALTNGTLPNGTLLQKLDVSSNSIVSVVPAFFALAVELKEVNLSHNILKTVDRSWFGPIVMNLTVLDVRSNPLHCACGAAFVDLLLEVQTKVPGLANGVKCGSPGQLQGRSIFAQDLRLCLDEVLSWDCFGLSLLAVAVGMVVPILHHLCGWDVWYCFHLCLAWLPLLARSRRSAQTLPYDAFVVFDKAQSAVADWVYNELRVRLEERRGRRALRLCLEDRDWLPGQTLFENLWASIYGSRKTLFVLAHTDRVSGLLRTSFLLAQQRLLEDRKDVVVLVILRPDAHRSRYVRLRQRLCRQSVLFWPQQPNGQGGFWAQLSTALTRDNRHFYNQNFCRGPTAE
The following applies: mice.

On to “5′-TCCATGACGTTCCTGATGCT-3′: CpG oligodeoxynucleotide TLR9 agonist produced at Metabion International AG (DNA, all phosphorothioate, methylation of C not given here; listed as Mus musculus)”, for which the “reversal of regulatory T cell-mediated CD8 tolerance” value is “efficiently reverse regulatory T cell-mediated CD8 tolerance”.
